# Reference: paper PMC10306110 (Cell, 2023)
# Assays:
# [1] = target: SERT-S277C (Rattus norvegicus, UniProt P31652, C109A/C15A/C21A/C357I/C622A/S277C); assay: Cys277 accessibility; format: biochemical
# [2] = target: T1, SERT-Y107C (Rattus norvegicus, UniProt P31652, C109A/Y107C); conditions: cited from earlier work
# [3] = test system: learned helpless C57BL/6J mice; assay: Learned helplessness: tail suspension; format: in vivo, mouse; conditions: for immobility upon treatment-withdrawal / anti-depressant-like activities in tail suspension: 40 mg/kg Ibo; for immobility upon treatment-withdrawal: 10 mg/kg Flx; for anti-depressant-like activities in tail suspension: 10 mg/kg Flx daily
# [4] = test system: learned helpless C57BL/6J mice; assay: Learned helplessness: sucrose preference; format: in vivo, mouse; conditions: for overall sucrose preference at testing: 40 mg/kg Ibo
# [5] = test system: wild-type (WT) and VMAT2 heterozygous (HET) mice; assay: Tail suspension in VMAT2 mice; format: in vivo, mouse; conditions: for anti-depressant-like effects 24 h post-injection: VMAT2 HET, 2 mg/kg ‘8090, 0.5 mg/kg ‘8219, 20 mg/kg Flx, 30 mg/kg Ibo; for immobility times: acute (30 min), 20 mg/kg Flx versus vehicle, 30 mg/kg Ibo versus 1 mg/kg ‘8090 and 0.5 mg/kg ‘8219
# [6] = test system: learned helpless C57BL/6J mice; assay: Open field motor activity; format: in vivo, mouse; conditions: day 12; 2 or 5 mg/kg ‘8090, 5 mg/kg ‘8219; 40 mg/kg Ibo, 10 mg/kg Flx
# [7] = test system: learned helpless C57BL/6J mice; assay: Learned helplessness: shock escape; format: in vivo, mouse; conditions: for shock-escape performance: 40 mg/kg Ibo, 10 mg/kg Flx
# [8] = test system: learned helpless C57BL/6J mice; assay: Elevated 8-arm radial maze; format: in vivo, mouse
# [9] = test system: learned helpless C57BL/6J mice; assay: Sensitivity to foot-shock; format: in vivo, mouse; conditions: days 13 and 22
# [10] = test system: learned helpless C57BL/6J mice; assay: Elevated zero maze; format: in vivo, mouse; conditions: for locomotion in the zero maze versus vehicle: 5 mg/kg ‘8090, 40 mg/kg Ibo
# [11] = test system: C56BL/6J mice; assay: Elevated plus-maze assay; format: in vivo, mouse; conditions: ‘8219 and ‘8090 10 mg/kg/day for 10 days; paroxetine 10 mg/kg single
# [12] = target: T2, 5-HT1A receptor (Homo sapiens, UniProt P08908); assay: GloSensor cAMP Gi agonist activity assay; format: cell-based; conditions: concentration-response
# T2 sequence (P08908 1-422): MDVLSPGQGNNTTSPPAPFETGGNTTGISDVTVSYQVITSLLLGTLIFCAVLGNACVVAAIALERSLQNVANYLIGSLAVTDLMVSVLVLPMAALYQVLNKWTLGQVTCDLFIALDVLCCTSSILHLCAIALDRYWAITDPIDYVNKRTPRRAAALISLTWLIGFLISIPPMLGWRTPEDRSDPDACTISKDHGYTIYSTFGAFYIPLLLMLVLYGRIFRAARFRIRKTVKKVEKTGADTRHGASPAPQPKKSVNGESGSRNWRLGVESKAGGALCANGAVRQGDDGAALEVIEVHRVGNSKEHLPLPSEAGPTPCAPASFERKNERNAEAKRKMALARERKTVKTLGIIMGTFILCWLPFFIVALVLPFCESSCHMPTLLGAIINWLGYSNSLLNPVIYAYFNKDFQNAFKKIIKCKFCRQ
# [13] = target: T1, SERT-Y107C; assay: Cys107 accessibility; format: cell-based; conditions: saturating concentration (10x KD)
# [14] = target: hSERT (Homo sapiens, UniProt P31645); format: cell-based
# Sequence of hSERT (P31645 whole entry): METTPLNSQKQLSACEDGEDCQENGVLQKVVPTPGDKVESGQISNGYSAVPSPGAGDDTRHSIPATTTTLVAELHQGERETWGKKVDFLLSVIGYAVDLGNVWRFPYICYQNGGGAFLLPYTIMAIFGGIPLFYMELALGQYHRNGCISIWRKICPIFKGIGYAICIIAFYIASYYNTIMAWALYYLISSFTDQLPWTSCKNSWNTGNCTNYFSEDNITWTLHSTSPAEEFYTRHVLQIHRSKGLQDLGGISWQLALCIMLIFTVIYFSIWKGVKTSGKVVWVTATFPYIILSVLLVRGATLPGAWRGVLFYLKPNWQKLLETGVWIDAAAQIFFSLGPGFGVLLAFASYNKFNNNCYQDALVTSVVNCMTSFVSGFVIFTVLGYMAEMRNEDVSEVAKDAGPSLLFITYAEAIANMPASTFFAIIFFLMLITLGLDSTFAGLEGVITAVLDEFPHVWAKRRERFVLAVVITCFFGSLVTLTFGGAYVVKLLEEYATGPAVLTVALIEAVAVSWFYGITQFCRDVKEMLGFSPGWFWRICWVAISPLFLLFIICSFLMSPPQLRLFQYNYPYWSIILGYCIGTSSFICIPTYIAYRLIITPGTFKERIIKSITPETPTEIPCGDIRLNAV
# [15] = Pharmacokinetics, brain exposure after i.p. dosing; format: in vivo; conditions: 10 mg/Kg intraperitoneal (i.p.), mouse
# [16] = target: rSERT (Rattus norvegicus, UniProt P31652); assay: [3H]5-HT transport into RBL cells or SERT-transfected HeLa cells; format: cell-based
# [17] = target: human NET (Homo sapiens, UniProt P23975); assay: Neurotransmitter transporter uptake assay, NET; conditions: read-out: Ki against NET; cell-based functional assay
# Sequence of human NET (P23975 whole entry): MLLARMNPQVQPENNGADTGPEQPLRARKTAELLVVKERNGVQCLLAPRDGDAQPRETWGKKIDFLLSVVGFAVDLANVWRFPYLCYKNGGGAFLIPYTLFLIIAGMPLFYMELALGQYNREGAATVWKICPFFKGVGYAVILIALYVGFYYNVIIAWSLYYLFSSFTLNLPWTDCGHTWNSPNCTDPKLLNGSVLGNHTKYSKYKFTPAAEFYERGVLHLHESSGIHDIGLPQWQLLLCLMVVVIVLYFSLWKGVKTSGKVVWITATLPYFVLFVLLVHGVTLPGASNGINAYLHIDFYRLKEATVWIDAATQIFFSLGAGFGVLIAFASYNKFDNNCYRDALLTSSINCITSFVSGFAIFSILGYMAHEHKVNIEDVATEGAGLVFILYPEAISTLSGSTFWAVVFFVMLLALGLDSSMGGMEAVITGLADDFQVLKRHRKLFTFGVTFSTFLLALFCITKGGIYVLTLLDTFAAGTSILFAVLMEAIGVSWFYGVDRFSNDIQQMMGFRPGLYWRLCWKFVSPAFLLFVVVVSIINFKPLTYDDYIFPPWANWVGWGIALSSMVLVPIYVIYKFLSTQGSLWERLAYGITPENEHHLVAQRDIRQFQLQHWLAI
# [18] = target: T3, SERT (Rattus norvegicus, UniProt P31652); assay: Efflux of accumulated [3H]5-HT induced by extracellular compounds; format: cell-based; conditions: saturating concentrations
# [19] = target: human DAT (Homo sapiens, UniProt Q01959); assay: Neurotransmitter transporter uptake assay, DAT; conditions: read-out: Ki against DAT; cell-based functional assay
# Sequence of human DAT (Q01959 whole entry): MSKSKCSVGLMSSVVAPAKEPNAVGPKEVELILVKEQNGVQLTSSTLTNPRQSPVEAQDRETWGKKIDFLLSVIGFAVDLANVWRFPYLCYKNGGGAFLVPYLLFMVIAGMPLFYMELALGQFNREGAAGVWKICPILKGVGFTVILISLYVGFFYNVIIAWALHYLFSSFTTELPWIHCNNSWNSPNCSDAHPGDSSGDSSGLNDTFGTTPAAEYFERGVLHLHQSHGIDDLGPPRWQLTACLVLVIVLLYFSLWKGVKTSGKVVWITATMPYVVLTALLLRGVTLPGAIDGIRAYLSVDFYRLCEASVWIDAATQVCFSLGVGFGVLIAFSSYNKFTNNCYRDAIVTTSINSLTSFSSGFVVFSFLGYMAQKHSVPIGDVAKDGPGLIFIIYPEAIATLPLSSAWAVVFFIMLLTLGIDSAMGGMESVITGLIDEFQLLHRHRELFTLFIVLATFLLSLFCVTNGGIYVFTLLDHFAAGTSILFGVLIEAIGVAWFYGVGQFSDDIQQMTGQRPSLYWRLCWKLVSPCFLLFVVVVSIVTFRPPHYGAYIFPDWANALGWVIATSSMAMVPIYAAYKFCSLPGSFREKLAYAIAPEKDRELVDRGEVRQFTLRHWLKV
# [20] = target: T3, SERT; assay: [125I]β-CIT displacement binding in membranes from SERT-transfected HeLa cells
# [21] = test system: morphine-treated mice; assay: Naloxone-precipitated opioid withdrawal assay; format: in vivo, mouse; conditions: 10 mg/kg i.p.
# [22] = target: T3, SERT; conditions: cited from earlier work
# [23] = presence of Na+, cocaine 10 µM, ibogaine 10 µM, ‘8219 0.05 µM, ‘8090 0.15 µM
compound,measurement,setting,value
"COC(=O)[C@H]1[C@@H](OC(=O)c2ccccc2)C[C@@H]2CC[C@H]1N2C [cocaine, reference compound]",Cys277 reactivity (cytoplasmic pathway) versus control,[1]; [23],decreased Cys277 reactivity
same,Cys107 accessibility (extracellular pathway),[2],renders it more accessible
"CNCCC(Oc1ccc(C(F)(F)F)cc1)c1ccccc1 (stereo not shown) [Flx, fluoxetine]",immobility upon treatment-withdrawal,[3],immobility was enhanced
same,anti-depressant-like activities in tail suspension,[3],transient
same,sucrose preference over vehicle controls on day −2,[4]; 10 mg/kg Flx daily,enhanced preference for sucrose
same,overall sucrose preference at testing,[4]; 10 mg/kg Flx daily,increased overall sucrose preference
same,anti-depressant-like effects 24 h post-injection,[5],maintained
same,immobility times,[5]; WT,increased
same,locomotion in the open field,[6],No locomotor differences were found
same,shock-escape performance,[7],improve shock-escape performance
same,arm entries before repeating a first entry compared to Ibo and vehicle mice,"[8]; 10 mg/kg Flx, ANCOVA",entered more arms before repeating a first entry
same,reactivity to foot-shock,[9],do not affect reactivity to foot-shock
same,open area time compared to Ibo and vehicle controls,[10]; 10 mg/kg Flx,increased open area time
Fc1ccc(-c2csc(N3CCNCC3)n2)cc1 [‘8090],"immobility times on days 0, 1, and 3","[3]; 2 or 5 mg/kg ‘8090, 5 mg/kg ‘8219 daily",reduced
same,sucrose preference compared to vehicle,"[4]; daily i.p. dosing, 2 or 5 mg/kg ‘8090, 5 mg/kg ‘8219",significant preference for sucrose compared to vehicle
same,open arm entries and time compared to vehicle,[11],increased the percentage of entries into and the time spent exploring the open arms
same,Gi agonist activity at 5-HT1A relative to reference agonist 5-HT,[12],about 6%
same,Cys107 reactivity (extracellular pathway),[13],decreased Cys107 reactivity
same,Cys277 reactivity (cytoplasmic pathway) versus control,"[1]; absence of Na+ (replaced by NMDG), 2 µM",had no influence on the pathway
same,Cys277 reactivity (cytoplasmic pathway) versus control,[1]; [23],decreased reactivity slightly
same,anti-depressant-like effects 24 h post-injection,[5],maintained
same,immobility 24 h post-injection,"[5]; WT, 1 mg/kg compared to 0.5 mg/kg",significantly decreased immobility
same,locomotion in the open field,[6],no effects were observed
same,shock-escape performance on day 23 versus controls,[7]; 1 mg/kg ‘8090 group,higher
same,shock-escape performance (numbers of escapes) on days 10 and 23,[7]; 5 mg/kg,increased over vehicle
same,dissociation rate,"[14]; HEK-293 cells expressing hSERT pre-incubated with 50 nM ‘8219 or 75 nM ‘8090, washout",1.82 ± 0.09 × 10^−3 s^−1
same,half time for equilibration of binding,"[14]; at concentrations giving half-maximal inhibition, calculated",less than 7 minutes
same,brain Cmax,[15],12000 ng/g
same,half-life,[15]; brain,44.3 min
same,Vmax for 5-HT transport in presence of inhibitor,"[16]; 0.15 μM ‘8219, 0.7 μM ‘8090, HeLa cells transfected with rSERT, control 1.7 ± 0.25",0.69 ± 0.1 pmol/m/well
same,type of inhibition of 5-HT influx,[16]; decreased Vmax with minimal effect on KM,non-competitive inhibition
same,Ki,[17],10 µM
same,arm entries before a second repeated entry versus vehicle,"[8]; 2 mg/kg ‘8090 or 5 mg/kg ‘8219, day 9",entered more arms before making a second repeated entry
same,SERT substrate activity (stimulation of [3H]5-HT efflux),[18],not SERT substrates
same,Ki,[19],6.6 µM
same,reactivity to foot-shock,[9],do not affect reactivity to foot-shock
same,locomotion in the zero maze versus vehicle,[10],increased
same,time in and entry into the open areas versus vehicle,"[10]; 2 or 5 mg/kg ‘8090, 5 mg/kg ‘8219, day 6",spent more time and entered the open areas more readily than vehicle-treated mice
same,Ki,[20]; displacement of [125I]β-CIT,0.014 µM
same,increase of inhibitory potency (binding) by Na+,[20]; displacement of [125I]β-CIT,15 fold
same,Kd,[20]; read-out: KD values used for kon calculation,0.015 µM
"Fc1ccc([C@@H]2CCNC[C@H]2COc2ccc3c(c2)OCO3)cc1 [paroxetine, reference compound]",open arm entries and time compared to vehicle,[11],spent more time exploring the open arms
same,naloxone-precipitated morphine withdrawal symptoms,[21],significantly reduced naloxone-precipitated jumps and rearings
ibogaine,immobility upon treatment-withdrawal,[3],immobility was enhanced
same,anti-depressant-like activities in tail suspension,[3],transient
same,overall sucrose preference at testing,[4]; 10 mg/kg Flx daily,increased overall sucrose preference
same,Cys277 reactivity (cytoplasmic pathway) versus control,[1]; [23],dramatically increased Cys277 reactivity
same,anti-depressant-like effects 24 h post-injection,[5],effects were lost
same,immobility times,[5]; WT,increased
same,shock-escape performance,[7],improve shock-escape performance
same,Cys107 accessibility (extracellular pathway),[2],decreases its accessibility
same,locomotion in the radial maze,[8]; 40 mg/kg Ibo,suppressed locomotion
same,locomotion in the zero maze versus vehicle,[10],decreased
same,effect of Cl− on binding to SERT,[22],independent of Cl^−
same,effect of Na+ on binding to SERT,[22],inhibited by Na^+
